Source: PubChem BioAssay AID1963428 (Molecular Pharmacology Branch, DTP, NCI, 2024)

Test system: 171881-019-R-J1-PDC complex spheroid growth, % test/control
Test: Anticancer human tumor 171881-019-R-J1-PDC patient-derived invasive breast carcinoma cell line growth inhibition [Asc]
Conditions: for IC50: curve of first compound; for viability, T/C: stronger effect = lower value
How it was run: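 Spheroid model: tumor line + HUVEC + hMSC. Single agents and combinations; top conc. at/near clinical Cmax (10 microM if undetermined), half-log dilutions. DMSO stocks at 800-fold test concentration.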

[1] = second compound 0.1 µM, first compound 0.00316 µM
[2] = second compound 0.1 µM, first compound 0.01 µM
[3] = second compound 0.1 µM, first compound 0.0316 µM
[4] = second compound 0.1 µM, first compound 0.1 µM
[5] = second compound 0.1 µM, first compound 0.316 µM
[6] = second compound 0.1 µM, first compound 1 µM
[7] = second compound 0.316 µM, first compound 0.00316 µM
[8] = second compound 0.316 µM, first compound 0.01 µM
[9] = second compound 0.316 µM, first compound 0.0316 µM
[10] = second compound 0.316 µM, first compound 0.1 µM
[11] = second compound 0.316 µM, first compound 0.316 µM
[12] = second compound 0.316 µM, first compound 1 µM
[13] = second compound 1 µM, first compound 0.00316 µM
[14] = second compound 1 µM, first compound 0.01 µM
[15] = second compound 1 µM, first compound 0.0316 µM
[16] = second compound 1 µM, first compound 0.1 µM
[17] = second compound 1 µM, first compound 0.316 µM
[18] = second compound 1 µM, first compound 1 µM
[19] = second compound 3.16 µM, first compound 0.00316 µM
[20] = second compound 3.16 µM, first compound 0.01 µM
[21] = second compound 3.16 µM, first compound 0.0316 µM
[22] = second compound 3.16 µM, first compound 0.1 µM
[23] = second compound 3.16 µM, first compound 0.316 µM
[24] = second compound 3.16 µM, first compound 1 µM
[25] = second compound 10 µM, first compound 0.00316 µM
[26] = second compound 10 µM, first compound 0.01 µM
[27] = second compound 10 µM, first compound 0.0316 µM
[28] = second compound 10 µM, first compound 0.1 µM
[29] = second compound 10 µM, first compound 0.316 µM
[30] = second compound 10 µM, first compound 1 µM
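Throughout, for viability, T/C: spheroids exposed to compounds for 7 days.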

Row | IC50 (second compound 0.1 µM) [nM] | IC50 (second compound 0.316 µM) [nM] | IC50 (second compound 1 µM) [nM] | IC50 (second compound 3.16 µM) [nM] | IC50 (second compound 10 µM) [nM] | SMILES | viability, T/C [1] [%] | viability, T/C [2] [%] | viability, T/C [3] [%] | viability, T/C [4] [%] | viability, T/C [5] [%] | viability, T/C [6] [%] | viability, T/C [7] [%] | viability, T/C [9] [%] | viability, T/C [10] [%] | viability, T/C [15] [%] | viability, T/C [16] [%] | viability, T/C [21] [%] | viability, T/C [22] [%] | viability, T/C [27] [%] | viability, T/C [28] [%] | other results
1 | > 1000 | > 1000 | > 1000 | > 1000 | > 1000 | CCN1CCN(Cc2ccc(Nc3ncc(F)c(-c4cc(F)c5nc(C)n(C(C)C)c5c4)n3)nc2)CC1 + Cc1c(S(C)(=O)=O)c(-c2cc(F)cc(N3CCN(c4ccc(NS(=O)(=O)c5ccc(NC(CCN6CCC(C(=O)OCCCP(=O)(O)O)CC6)CSc6ccccc6)c(S(=O)(=O)C(F)(F)F)c5)cc4)CC3)c2)c(-c2ccc(Cl)cc2)n1C(C)C | 105 | 118 | 119 | 111 | 118 | 146 | 142 | 149 | 139 | 157 | 172 | 189 | 184 | 213 | 192 | viability, T/C [8]: 145%; viability, T/C [11]: 178%; viability, T/C [12]: 188%; viability, T/C [13]: 125%; viability, T/C [14]: 149%; viability, T/C [17]: 188%; viability, T/C [18]: 200%; viability, T/C [19]: 191%; viability, T/C [20]: 190%; viability, T/C [23]: 188%; viability, T/C [24]: 185%; viability, T/C [25]: 199%; viability, T/C [26]: 215%; viability, T/C [29]: 187%; viability, T/C [30]: 166%
2 | > 100 | > 100 | > 100 | > 100 | > 100 | Cn1ncnc1[C@H]1c2n[nH]c(=O)c3cc(F)cc(c23)N[C@@H]1c1ccc(F)cc1 + Cc1c(S(C)(=O)=O)c(-c2cc(F)cc(N3CCN(c4ccc(NS(=O)(=O)c5ccc(NC(CCN6CCC(C(=O)OCCCP(=O)(O)O)CC6)CSc6ccccc6)c(S(=O)(=O)C(F)(F)F)c5)cc4)CC3)c2)c(-c2ccc(Cl)cc2)n1C(C)C | 103 | 115 | 108 | 100 |  |  | 107 | 129 | 129 | 143 | 192 | 192 | 173 | 192 | 181 | viability, T/C (second compound 0.1 µM, first compound 0.000316 µM): 86.8%; viability, T/C (second compound 0.1 µM, first compound 0.001 µM): 108%; viability, T/C (second compound 0.316 µM, first compound 0.000316 µM): 111%; viability, T/C (second compound 0.316 µM, first compound 0.001 µM): 130%; viability, T/C [8]: 120%; viability, T/C (second compound 1 µM, first compound 0.000316 µM): 136%; viability, T/C (second compound 1 µM, first compound 0.001 µM): 145%; viability, T/C [13]: 123%; viability, T/C [14]: 159%; viability, T/C (second compound 3.16 µM, first compound 0.000316 µM): 168%; viability, T/C (second compound 3.16 µM, first compound 0.001 µM): 155%; viability, T/C [19]: 186%; viability, T/C [20]: 178%; viability, T/C (second compound 10 µM, first compound 0.000316 µM): 210%; viability, T/C (second compound 10 µM, first compound 0.001 µM): 203%; viability, T/C [25]: 214%; viability, T/C [26]: 208%
3 | > 10000 | > 10000 | > 10000 | > 10000 | > 10000 | O=C(c1cc(Cc2n[nH]c(=O)c3ccccc23)ccc1F)N1CCN(C(=O)C2CC2)CC1 + Cc1c(S(C)(=O)=O)c(-c2cc(F)cc(N3CCN(c4ccc(NS(=O)(=O)c5ccc(NC(CCN6CCC(C(=O)OCCCP(=O)(O)O)CC6)CSc6ccccc6)c(S(=O)(=O)C(F)(F)F)c5)cc4)CC3)c2)c(-c2ccc(Cl)cc2)n1C(C)C |  |  | 106 | 102 | 103 | 124 |  | 136 | 125 | 132 | 136 | 158 | 200 | 212 | 208 | viability, T/C (second compound 0.1 µM, first compound 3.16 µM): 102%; viability, T/C (second compound 0.1 µM, first compound 10 µM): 111%; viability, T/C [11]: 134%; viability, T/C [12]: 125%; viability, T/C (second compound 0.316 µM, first compound 3.16 µM): 127%; viability, T/C (second compound 0.316 µM, first compound 10 µM): 134%; viability, T/C [17]: 143%; viability, T/C [18]: 168%; viability, T/C (second compound 1 µM, first compound 3.16 µM): 169%; viability, T/C (second compound 1 µM, first compound 10 µM): 180%; viability, T/C [23]: 193%; viability, T/C [24]: 164%; viability, T/C (second compound 3.16 µM, first compound 3.16 µM): 197%; viability, T/C (second compound 3.16 µM, first compound 10 µM): 184%; viability, T/C [29]: 228%; viability, T/C [30]: 227%; viability, T/C (second compound 10 µM, first compound 3.16 µM): 209%; viability, T/C (second compound 10 µM, first compound 10 µM): 175%
4 | 207 | 164 | 125 | 87.3 | 106 | O=C(c1ccc(F)c(F)c1Nc1ccc(I)cc1F)N1CC(O)([C@@H]2CCCCN2)C1 + Cc1c(S(C)(=O)=O)c(-c2cc(F)cc(N3CCN(c4ccc(NS(=O)(=O)c5ccc(NC(CCN6CCC(C(=O)OCCCP(=O)(O)O)CC6)CSc6ccccc6)c(S(=O)(=O)C(F)(F)F)c5)cc4)CC3)c2)c(-c2ccc(Cl)cc2)n1C(C)C | 98.9 | 110 | 222 | 97.6 | 25.8 | 18.8 | 109 | 186 | 75.9 | 158 | 59.2 | 115 | 44.8 | 118 | 54.9 | viability, T/C [8]: 194%; viability, T/C [11]: 18.7%; viability, T/C [12]: 12.3%; viability, T/C [13]: 136%; viability, T/C [14]: 193%; viability, T/C [17]: 13.7%; viability, T/C [18]: 6.11%; viability, T/C [19]: 156%; viability, T/C [20]: 182%; viability, T/C [23]: 8.8%; viability, T/C [24]: 3.61%; viability, T/C [25]: 175%; viability, T/C [26]: 174%; viability, T/C [29]: 12%; viability, T/C [30]: 3.48%
